The results in this text go back to ChEMBL document CHEMBL5107941, “Design and optimisation of a small-molecule TLR2/4 antagonist for anti-tumour therapy” (RSC Med Chem, 2021).

System in one data set: not listed separately
Briefly: Cytotoxicity against HEK-Blue hTLR2 cells assessed as lethal dose measured after 24 hrs by CCK-8 assay. The format is toxicity, cell-based. The note with it: human, read-out: LD50.
`O=[N+]([O-])/C=C/c1cccc(Nc2ccccn2)c1`: the CC50 at 24 h was 28 µM.

System in the next data set: not listed separately
In words: Cytotoxicity against mouse RAW264.7 cells assessed as lethal dose measured after 24 hrs by CCK-8 assay. It counts as toxicity, cell-based. Conditions: read-out: LD50.
For the compound `O=[N+]([O-])/C=C/c1cccc(Nc2ccccn2)c1`, the CC50 at 24 h turned out to be 28 µM.

For another data set, the target named is Toll-like receptor 2 (Homo sapiens, UniProt O60603). Briefly: Antagonist activity at human TLR2 in HEK-Blue hTLR2 cells assessed as inhibition of Pam3CSK4-induced receptor activation preincubated with Pam3CSK4 followed by compound addition and measured 24 hrs by Quanti-Blue based SEAP reporter gene assay. It counts as cell-based.
Chain of Toll-like receptor 2 (O60603 whole entry): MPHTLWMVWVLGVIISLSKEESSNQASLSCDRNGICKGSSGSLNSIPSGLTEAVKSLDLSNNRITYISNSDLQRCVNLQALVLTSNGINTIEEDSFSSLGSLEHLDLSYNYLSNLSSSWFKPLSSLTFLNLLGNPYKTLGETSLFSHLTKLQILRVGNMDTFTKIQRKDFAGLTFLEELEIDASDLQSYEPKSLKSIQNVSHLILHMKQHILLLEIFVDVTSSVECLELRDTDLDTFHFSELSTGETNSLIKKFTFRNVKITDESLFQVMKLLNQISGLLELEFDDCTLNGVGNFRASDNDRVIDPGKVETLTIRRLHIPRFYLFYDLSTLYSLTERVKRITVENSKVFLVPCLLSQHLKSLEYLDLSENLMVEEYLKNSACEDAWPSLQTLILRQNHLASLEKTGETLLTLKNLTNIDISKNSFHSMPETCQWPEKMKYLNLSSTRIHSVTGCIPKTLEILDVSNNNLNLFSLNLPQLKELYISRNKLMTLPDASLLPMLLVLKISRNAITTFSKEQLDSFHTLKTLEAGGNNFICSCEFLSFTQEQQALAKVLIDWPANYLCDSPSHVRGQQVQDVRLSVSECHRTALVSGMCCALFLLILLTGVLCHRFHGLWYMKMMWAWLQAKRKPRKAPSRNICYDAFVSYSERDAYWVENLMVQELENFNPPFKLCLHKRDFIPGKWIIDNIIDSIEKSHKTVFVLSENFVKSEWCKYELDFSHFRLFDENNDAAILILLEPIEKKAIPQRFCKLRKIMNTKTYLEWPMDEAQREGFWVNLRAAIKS
Conditions: not given
A general note: A reporter such as luciferase makes a cellular process visible.
With `O=[N+]([O-])/C=C/c1cccc(OCc2ccc(Cl)cc2)c1`, the IC50 (in general, the concentration that inhibits the measured activity by half) worked out at 4.3 µM. Same read-out and setting: with `O=[N+]([O-])/C=C/c1cccc(OCc2ccc(F)cc2)c1` the figure was 5.5 µM. Same read-out and setting: for `O=[N+]([O-])/C=C/c1cccc(OCc2ccccc2)c1` the value was 3.3 µM. On the same count and under the same terms, with `CCOC(=O)c1ccc(COc2cccc(/C=C/[N+](=O)[O-])c2)nc1` the figure was 12.3 µM; with `O=[N+]([O-])/C=C/c1ccccc1Oc1ccccc1`, 4.4 µM. As for `O=[N+]([O-])/C=C/c1cccc(Nc2ncccn2)c1`, the IC50 came out at 2.6 µM. Same read-out and setting: with `O=[N+]([O-])/C=C/c1cccc(Oc2ccccn2)c1` the figure was 1.2 µM; with `O=[N+]([O-])/C=C/c1cccc(OCc2ccccn2)c1`, 1.1 µM; with `CCCCOc1cccc(/C=C/[N+](=O)[O-])c1`, 3.9 µM. Still for that read-out and setting: with `O=[N+]([O-])/C=C/c1cccc(OCC2CC2)c1` the figure was 2.4 µM. Regarding `COc1ccc(COc2cccc(/C=C/[N+](=O)[O-])c2)cc1`, the IC50 stood at 4.4 µM. Consider `CCCCOC(=O)c1ccc(COc2cccc(/C=C/[N+](=O)[O-])c2)nc1`, for which the IC50 turned out to be 3.1 µM. Regarding `O=[N+]([O-])/C=C/c1cccc(OCc2ccncc2)c1`, the IC50 is 3.2 µM. Consider `O=[N+]([O-])/C=C/c1cccc(Oc2ccccc2)c1`, for which the IC50 was 3.4 µM. On the same count and under the same terms, with `O=[N+]([O-])/C=C/c1cccc(OCc2ccc3ccccc3c2)c1` the figure was 5 µM.

For the next data set, the target named is Toll-like receptor 4 (Homo sapiens, UniProt O00206). In words: Antagonist activity at human TLR4 in HEK-Blue hTLR4 cells assessed as inhibition of LPS-induced receptor activation preincubated with LPS followed by compound addition and measured 24 hrs by Quanti-Blue based SEAP reporter gene assay. The format is cell-based.
Chain of Toll-like receptor 4 (O00206 whole entry): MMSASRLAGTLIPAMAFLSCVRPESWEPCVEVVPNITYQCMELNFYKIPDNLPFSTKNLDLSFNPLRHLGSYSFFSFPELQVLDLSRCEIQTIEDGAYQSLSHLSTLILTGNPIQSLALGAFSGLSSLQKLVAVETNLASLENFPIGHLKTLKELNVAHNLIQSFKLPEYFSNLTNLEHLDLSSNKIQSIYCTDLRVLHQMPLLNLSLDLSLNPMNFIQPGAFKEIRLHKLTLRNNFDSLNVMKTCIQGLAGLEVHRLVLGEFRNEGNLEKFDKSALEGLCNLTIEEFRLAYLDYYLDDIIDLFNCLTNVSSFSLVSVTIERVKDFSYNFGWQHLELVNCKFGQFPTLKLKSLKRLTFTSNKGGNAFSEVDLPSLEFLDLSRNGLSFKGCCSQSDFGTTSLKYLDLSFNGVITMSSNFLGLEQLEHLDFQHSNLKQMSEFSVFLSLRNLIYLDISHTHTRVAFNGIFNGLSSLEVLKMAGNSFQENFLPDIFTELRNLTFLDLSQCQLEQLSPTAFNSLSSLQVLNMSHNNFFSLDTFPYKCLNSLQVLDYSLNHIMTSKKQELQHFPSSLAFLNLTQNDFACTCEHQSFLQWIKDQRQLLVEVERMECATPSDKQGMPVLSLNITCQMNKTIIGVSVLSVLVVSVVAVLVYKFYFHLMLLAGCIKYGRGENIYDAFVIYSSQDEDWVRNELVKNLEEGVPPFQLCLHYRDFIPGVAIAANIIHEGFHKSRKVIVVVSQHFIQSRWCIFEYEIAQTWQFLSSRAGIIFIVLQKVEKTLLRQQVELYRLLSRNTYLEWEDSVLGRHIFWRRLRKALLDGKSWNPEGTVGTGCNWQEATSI
Conditions: not given
For `O=[N+]([O-])/C=C/c1cccc(OCc2ccc(Cl)cc2)c1`, the IC50 came out at 4.8 µM. For the compound `O=[N+]([O-])/C=C/c1cccc(OCc2ccc(F)cc2)c1`, the IC50 worked out at 4.2 µM. Take `O=[N+]([O-])/C=C/c1cccc(OCc2ccccc2)c1`: the IC50 came out at 3.5 µM.

For the compound `CCOC(=O)c1ccc(COc2cccc(/C=C/[N+](=O)[O-])c2)nc1`, the IC50 turned out to be 9.2 µM. Take `O=[N+]([O-])/C=C/c1ccc(Oc2ccccc2)cc1`: the IC50 was determined as 6.5 µM. On the same count and under the same terms, with `O=C(Nc1ccccn1)c1cccc(/C=C/[N+](=O)[O-])c1` the figure was 3.6 µM. Same read-out and setting: with `O=[N+]([O-])/C=C/c1cccc(Nc2ncccn2)c1` the figure was 2.8 µM; with `O=[N+]([O-])/C=C/c1cccc(Oc2ccccn2)c1`, 1 µM.

Turning to `O=[N+]([O-])/C=C/c1cccc(Oc2ncccn2)c1`, the IC50 was 6.2 µM. In the case of `CN(C)c1ccc(/C=C/[N+](=O)[O-])cc1Nc1ccccn1`, the IC50 was determined as 3.7 µM. Same read-out and setting: with `O=[N+]([O-])/C=C/c1cccc(-c2ccccn2)c1` the figure was 0.28 µM; with `O=[N+]([O-])/C=C/c1cccc(OCC2CCCCC2)c1`, 5.9 µM; with `O=[N+]([O-])/C=C/c1cccc(OCc2ccccn2)c1`, 1.4 µM. Still for that read-out and setting: with `CCCOC(=O)c1ccc(COc2cccc(/C=C/[N+](=O)[O-])c2)nc1` the figure was 5.9 µM. `O=[N+]([O-])/C=C/c1cccc(Oc2nccs2)c1`: the IC50 was 2.4 µM. The same measure, in the same setting: for `CCCCOc1cccc(/C=C/[N+](=O)[O-])c1` the value was 5.8 µM; for `O=[N+]([O-])/C=C/c1cccc(OCC2CC2)c1`, 2.5 µM. The same measure, in the same setting: with `COc1ccc(COc2cccc(/C=C/[N+](=O)[O-])c2)cc1` the figure was 5.6 µM; with `CCCCOC(=O)c1ccc(COc2cccc(/C=C/[N+](=O)[O-])c2)nc1`, 3.7 µM.

Take `O=[N+]([O-])/C=C/c1cccc(Nc2ccccn2)c1`: the IC50 came out at 0.46 µM. The same measure, in the same setting: with `O=[N+]([O-])/C=C/c1cccc(Nc2cccnc2)c1` the figure was 3.1 µM; with `O=[N+]([O-])/C=C/c1cccc(OCc2ccncc2)c1`, 3.9 µM.

With `C/C(=C\[N+](=O)[O-])c1cccc(Oc2ccccc2)c1`, the IC50 is 6.3 µM. As for `O=[N+]([O-])/C=C/c1cccc(Oc2ccccc2)c1`, the IC50 worked out at 4.3 µM. The same measure, in the same setting: with `O=[N+]([O-])/C=C/c1cccc(OCc2ccc3ccccc3c2)c1` the figure was 4.4 µM.

System in a further data set: not listed separately
Briefly: Cytotoxicity against HEK-Blue hTLR4 cells assessed as lethal dose measured after 24 hrs by CCK-8 assay. It counts as toxicity, cell-based. Conditions: human, read-out: LD50. Background: Tetrazolium dyes change colour on reduction, which living cells bring about.
As to `O=[N+]([O-])/C=C/c1cccc(Nc2ccccn2)c1`, the CC50 at 24 h was 28 µM.
